In patent US9521846B2, “Template-fixed peptidomimetics with antimicrobial activity” (priority 2006, dated 2016):
Values after ≈ are worked out from the molar mass of the structure shown. Non-standard residues stand in square brackets, D forms with d. Residues, ends and D or L forms follow the SMILES beside them. Tle = CC(C)(C)[C@H](N)C(=O)O; dDab = NCC[C@@H](N)C(=O)O; Orn = NCCC[C@H](N)C(=O)O; Dab = NCC[C@H](N)C(=O)O

Key:
[1] = system: Pseudomonas aeruginosa P1021913; format: cell-based; settings: P1021913
Description: (§1) The selective antimicrobial activities of the peptides were determined in 96-well plates (Nunclon polystyrene) by the standard NCCLS broth microdilution method (see ref 1, below) with slight modifications. Innocula of the microorganisms were diluted into Mueller-Hinton (MH) broth+0.02% BSA and compared with a 0.5 Mcfarland standard to give appr. 10^6 colony forming units (CFU)/ml. Aliquots (50 μl) of inoculate were added to 50 μl of MH broth+0.02% BSA containing the peptide in serial two-fold dilutions. The following microorganisms were used to determine antibiotic selectivity of the peptides: Escherichia coli (ATCC 25922), Pseudomonas aeruginosa (P. aeruginosa ATCC 27853, P8191900, P1021903, P1021913, IMP 1 Livermore 3140).

[2] = system: Pseudomonas aeruginosa P8191900; format: cell-based; settings: P8191900
Description: as §1

[3] = system: Pseudomonas aeruginosa P1021903; format: cell-based; settings: P1021903
Description: as §1

[4] = system: Pseudomonas aeruginosa IMP 1 Livermore 3140; format: cell-based; settings: IMP 1 Livermore 3140
Description: as §1

P. aeruginosa ATCC 27853 = format: cell-based, Pseudomonas aeruginosa; settings: ATCC 27853
Description: as §1

HELA cells (Acc57) = test: Cytotoxicity assay, MTT reduction (LC 50, GI 50); format: cell-based
Description: The cytotoxicity of the peptides to HELA cells (Acc57) and COS-7 cells (CRL-1651) was determined using the MIT reduction assay [see ref. 2 and 3, below]. Briefly the method was as follows: HELA cells and COS-7 cells were seeded at 7.0×10^3 and, respectively, 4.5×10^3 cells per well and grown in 96-well […] plates for 24 hours at 37° C. at 5% CO2. At this point, time zero (Tz) was determined by MTT reduction (see below). The supernatant of the remaining wells was discarded, and fresh medium and the peptides in serial dilutions of 12.5, 25 and 50 μM were dispensed into the wells. Each peptide concentration was assayed in triplicate. Incubation of the cells was continued for 48 hours at 37° C. at 5% CO2. Wells were then washed once with phosphate buffered saline (PBS) and subsequently 100 μl MIT reagent (0.5 mg/ml in medium RPMI1640 and, respectively, DMEM) were added to the wells. This was incubated at 37° C. for 2 hours and subsequently the medium was aspirated and 100 μl isopropanol were added to each well. The absorbance at 595 nm of the solubilized product was measured (OD595peptide). For each concentration averages were calculated from triplicates. The percentage of growth was calculated as follows: (OD595peptide-OD595Tz-OD595Empty well)/(OD595Tz-OD595Empty well)×100% and was plotted for each peptide concentration.
The LC 50 values (Lethal Concentration, defined as the concentration that kills 50% of the cells) were determined for each peptide by using the trend line function of EXCEL (Microsoft Office 2000) for the concentrations (50, 25, 12.5 and 0 μM), the corresponding growth percentages and the value −50, (=TREND(C50:C0,%50:%0,−50)). The GI 50 (Growth Inhibition) concentrations were calculated for each peptide by using a trend line function for the concentrations (50, 25, 12.5 and 0 […]), the corresponding percentages and the value 50, (=TREND (C50:C0,%50:%0,50).

[5] = system: human red blood cells (hRBC); test: Hemolysis; format: cell-based; settings: 100
Description: Hemolysis of red blood cells is often employed for assessment of toxicity of related compounds such as protegrin or tachyplesin. Values are given as %-lysis of red blood cells observed at a concentration of 100 μg/ml. Typical values determined for cationic peptides such as protegrin and tachyplesin range between 30-40% with average MIC-values of 1-5 μg/ml over a wide range of pathogens.
The peptides were tested for their hemolytic activity against human red blood cells (hRBC). Fresh hRBC were washed three times with phosphate buffered saline (PBS) by centrifugation for 10 min at 2000×g. Peptides at a concentration of 100 μM were incubated with 20% v/v hRBC for 1 hour at 37° C. The final erythrocyte concentration was approximately 0.9×10^9 cells per ml. A value of 0% and, respectively, 100% cell lysis was determined by incubation of the hRBC in the presence of PBS alone and, respectively, 0.1% Triton X-100 in H2O. The samples were centrifuged, the supernatant was 20-fold diluted in PBS buffer and the optical density (OD) of the sample at […] was measured. The 100% lysis value (OD540H20) gave an OD540 of approximately 1.3-1.8. Percent hemolysis was calculated as follows: (OD540peptide/OD540H20)×100%.

## CC[C@H](C)[C@@H]1NC(=O)[C@H](Cc2c[nH]c3ccccc23)NC(=O)[C@H]([C@@H](C)O)NC(=O)[C@@H]2CCCN2C(=O)[C@H]2CCCN2C(=O)[C@H](CCN)NC(=O)[C@H](C)NC(=O)[C@H](CCN)NC(=O)[C@H](CCN)NC(=O)[C@H](Cc2c[nH]c3ccccc23)NC(=O)[C@H](CCN)NC(=O)[C@@H](CCN)NC(=O)[C@H](CCCCN)NC(=O)[C@H](CCN)NC1=O [Example 41] (cyclo(TWI[Dab]K[dDab][Dab]W[Dab][Dab]A[Dab][dP]P))
P. aeruginosa
  Average MIC: 0.12 µg/mL
[1]
  MIC P. aeruginosa P1021913: 0.25 µg/mL (≈ 0.158 µM)
[2]
  MIC P. aeruginosa P8191900: 0.05 µg/mL (≈ 0.0316 µM)
[3]
  MIC P. aeruginosa P1021903: 0.03 µg/mL (≈ 0.019 µM)
[4]
  MIC P. aeruginosa IMP1 Livermore 3140: 0.25 µg/mL (≈ 0.158 µM)
P. aeruginosa ATCC 27853
  MIC P. aeruginosa ATCC 27853: 0.02 µg/mL (≈ 0.0127 µM)
HELA cells (Acc57)
  Cytotoxicity GI50 Hela cells: 50 µM
[5]
  Hemolysis at 100 μg/ml: 0.2%

## CC[C@H](C)[C@@H]1NC(=O)[C@H](Cc2c[nH]c3ccccc23)NC(=O)[C@H](CCC(=O)O)NC(=O)[C@@H]2CCCN2C(=O)[C@H]2CCCN2C(=O)[C@H](CCN)NC(=O)[C@H](C)NC(=O)[C@H](CCN)NC(=O)[C@H](CCN)NC(=O)[C@H](Cc2c[nH]c3ccccc23)NC(=O)[C@H](CCN)NC(=O)[C@@H](CCN)NC(=O)[C@H](CCCN)NC(=O)[C@H](CCN)NC1=O [Example 47] (cyclo(EWI[Dab][Orn][dDab][Dab]W[Dab][Dab]A[Dab][dP]P))
P. aeruginosa
  Average MIC: 0.32 µg/mL
[1]
  MIC P. aeruginosa P1021913: 0.50 µg/mL (≈ 0.314 µM)
[2]
  MIC P. aeruginosa P8191900: 0.13 µg/mL (≈ 0.0815 µM)
[3]
  MIC P. aeruginosa P1021903: 0.13 µg/mL (≈ 0.0815 µM)
[4]
  MIC P. aeruginosa IMP1 Livermore 3140: 0.75 µg/mL (≈ 0.47 µM)
P. aeruginosa ATCC 27853
  MIC P. aeruginosa ATCC 27853: 0.09 µg/mL (≈ 0.0564 µM)
HELA cells (Acc57)
  Cytotoxicity GI50 Hela cells: 50 µM
[5]
  Hemolysis at 100 μg/ml: 0.2%

## CC[C@H](C)[C@@H]1NC(=O)[C@H](Cc2ccc(O)cc2)NC(=O)[C@H](CC(=O)O)NC(=O)[C@@H]2CCCN2C(=O)[C@H]2CCCN2C(=O)[C@H](CCN)NC(=O)[C@H](C)NC(=O)[C@H](CCN)NC(=O)[C@H](CCN)NC(=O)[C@H](Cc2c[nH]c3ccccc23)NC(=O)[C@H](CCN)NC(=O)[C@@H](CCN)NC(=O)[C@H](CCCCN)NC(=O)[C@H](CCN)NC1=O [Example 42] (cyclo(DYI[Dab]K[dDab][Dab]W[Dab][Dab]A[Dab][dP]P))
P. aeruginosa
  Average MIC: 0.29 µg/mL
[1]
  MIC P. aeruginosa P1021913: 0.50 µg/mL (≈ 0.318 µM)
[2]
  MIC P. aeruginosa P8191900: 0.06 µg/mL (≈ 0.0382 µM)
[3]
  MIC P. aeruginosa P1021903: 0.125 µg/mL (≈ 0.0795 µM)
[4]
  MIC P. aeruginosa IMP1 Livermore 3140: 0.50 µg/mL (≈ 0.318 µM)
P. aeruginosa ATCC 27853
  MIC P. aeruginosa ATCC 27853: 0.25 µg/mL (≈ 0.159 µM)
HELA cells (Acc57)
  Cytotoxicity GI50 Hela cells: 50 µM
[5]
  Hemolysis at 100 μg/ml: 0.2%

## CC[C@H](C)[C@@H]1NC(=O)[C@H](Cc2c[nH]c3ccccc23)NC(=O)[C@H]([C@@H](C)O)NC(=O)[C@@H]2CCCN2C(=O)[C@H]2CCCN2C(=O)[C@H](CCN)NC(=O)[C@H](CC(N)=O)NC(=O)[C@H](CCN)NC(=O)[C@H](CCN)NC(=O)[C@H](Cc2c[nH]c3ccccc23)NC(=O)[C@H](CCN)NC(=O)[C@H](CCN)NC(=O)[C@H](CCCCN)NC(=O)[C@H](CCN)NC1=O [Example 38] (cyclo(TWI[Dab]K[Dab][Dab]W[Dab][Dab]N[Dab][dP]P))
P. aeruginosa
  Average MIC: 0.35 µg/mL
[1]
  MIC P. aeruginosa P1021913: 0.27 µg/mL (≈ 0.166 µM)
[2]
  MIC P. aeruginosa P8191900: 0.17 µg/mL (≈ 0.105 µM)
[3]
  MIC P. aeruginosa P1021903: 0.17 µg/mL (≈ 0.105 µM)
[4]
  MIC P. aeruginosa IMP1 Livermore 3140: 1.06 µg/mL (≈ 0.653 µM)
P. aeruginosa ATCC 27853
  MIC P. aeruginosa ATCC 27853: 0.09 µg/mL (≈ 0.0554 µM)
HELA cells (Acc57)
  Cytotoxicity GI50 Hela cells: 50 µM
[5]
  Hemolysis at 100 μg/ml: 0.5%

## CC[C@H](C)[C@@H]1NC(=O)[C@H](Cc2c[nH]c3ccccc23)NC(=O)[C@H](C)NC(=O)[C@@H]2CCCN2C(=O)[C@H]2CCCN2C(=O)[C@H](CCN)NC(=O)[C@H](C(C)C)NC(=O)[C@H](CCN)NC(=O)[C@H](CCN)NC(=O)[C@H](Cc2c[nH]c3ccccc23)NC(=O)[C@H](CCN)NC(=O)[C@H](CCN)NC(=O)[C@H](CCN)NC(=O)[C@H](CCN)NC1=O [Example 23] (cyclo(AWI[Dab][Dab][Dab][Dab]W[Dab][Dab]V[Dab][dP]P))
P. aeruginosa
  Average MIC: >1 µg/mL
[1]
  MIC P. aeruginosa P1021913: 1.25 µg/mL (≈ 0.806 µM)
[2]
  MIC P. aeruginosa P8191900: 1.00 µg/mL (≈ 0.645 µM)
[3]
  MIC P. aeruginosa P1021903: 1.50 µg/mL (≈ 0.967 µM)
[4]
  MIC P. aeruginosa IMP1 Livermore 3140: >2 µg/mL
P. aeruginosa ATCC 27853
  MIC P. aeruginosa ATCC 27853: 1.00 µg/mL (≈ 0.645 µM)
HELA cells (Acc57)
  Cytotoxicity GI50 Hela cells: 13 µM
[5]
  Hemolysis at 100 μg/ml: 0.5%

## CC[C@H](C)[C@@H]1NC(=O)[C@H](Cc2c[nH]c3ccccc23)NC(=O)[C@H]([C@@H](C)O)NC(=O)[C@@H]2CCCN2C(=O)[C@H]2CCCN2C(=O)[C@H](CCN)NC(=O)[C@H](CC(=O)O)NC(=O)[C@H](CCN)NC(=O)[C@H](CCN)NC(=O)[C@H](Cc2c[nH]c3ccccc23)NC(=O)[C@H](CCN)NC(=O)[C@H](CCN)NC(=O)[C@H](CCCCN)NC(=O)[C@H](CCN)NC1=O [Example 14] (cyclo(TWI[Dab]K[Dab][Dab]W[Dab][Dab]D[Dab][dP]P))
P. aeruginosa
  Average MIC: >1 µg/mL
[1]
  MIC P. aeruginosa P1021913: 0.65 µg/mL (≈ 0.4 µM)
[2]
  MIC P. aeruginosa P8191900: 0.40 µg/mL (≈ 0.246 µM)
[3]
  MIC P. aeruginosa P1021903: 0.31 µg/mL (≈ 0.191 µM)
[4]
  MIC P. aeruginosa IMP1 Livermore 3140: >2 µg/mL
P. aeruginosa ATCC 27853
  MIC P. aeruginosa ATCC 27853: 0.21 µg/mL (≈ 0.129 µM)
HELA cells (Acc57)
  Cytotoxicity GI50 Hela cells: 12 µM
[5]
  Hemolysis at 100 μg/ml: 0.3%

## CC[C@H](C)[C@@H]1NC(=O)[C@H](Cc2c[nH]c3ccccc23)NC(=O)[C@H]([C@@H](C)O)NC(=O)[C@@H]2CCCN2C(=O)[C@H]2CCCN2C(=O)[C@H](CCN)NC(=O)[C@H](C(C)(C)C)NC(=O)[C@H](CCN)NC(=O)[C@H](CCN)NC(=O)[C@H](Cc2c[nH]c3ccccc23)NC(=O)[C@H](CCN)NC(=O)[C@H](CCN)NC(=O)[C@H](CCCCN)NC(=O)[C@H](CCN)NC1=O [Example 36] (cyclo(TWI[Dab]K[Dab][Dab]W[Dab][Dab][Tle][Dab][dP]P))
P. aeruginosa
  Average MIC: 0.22 µg/mL
[1]
  MIC P. aeruginosa P1021913: 0.24 µg/mL (≈ 0.148 µM)
[2]
  MIC P. aeruginosa P8191900: 0.18 µg/mL (≈ 0.111 µM)
[3]
  MIC P. aeruginosa P1021903: 0.18 µg/mL (≈ 0.111 µM)
[4]
  MIC P. aeruginosa IMP1 Livermore 3140: 0.43 µg/mL (≈ 0.265 µM)
P. aeruginosa ATCC 27853
  MIC P. aeruginosa ATCC 27853: 0.06 µg/mL (≈ 0.037 µM)
HELA cells (Acc57)
  Cytotoxicity GI50 Hela cells: 50 µM
[5]
  Hemolysis at 100 μg/ml: 0.1%
